Columns and labels:
[1] = biological target: Eukaryotic translation initiation factor 4 gamma 1 (Homo sapiens) (UniProt Q04637); note: assay method not described here
[2] = biological target: eIF5-mimic protein 2 (Homo sapiens) (UniProt Q7L1Q6); note: assay method not described here
[3] = biological target: Prothymosin alpha (Homo sapiens) (UniProt P06454); note: assay method not described here
Ephrin type-A receptor 4 = Ephrin type-A receptor 4 (Homo sapiens, UniProt P54764); assay: Inhibition of Nano Luc-fused full length C-terminal EPHA4 (unknown origin) expressed in HEK293T cells using NanoGlo as substrate incubated for 2 hrs in presence of tracer by NanoBRET assay; format: cell-based
[4] = biological target: Lupus La protein (Homo sapiens) (UniProt P05455); note: assay method not described here
[5] = biological target: U5 small nuclear ribonucleoprotein 200 kDa helicase (Homo sapiens) (UniProt O75643); note: assay method not described here
[6] = biological target: Heat shock 70 kDa protein 4 (Homo sapiens) (UniProt P34932); note: assay method not described here
[7] = biological target: Elongation factor 1-delta (Homo sapiens) (UniProt P29692); note: assay method not described here
[8] = biological target: Serine/threonine-protein kinase PLK1 (Homo sapiens) (UniProt P53350); note: assay method not described here
[9] = biological target: Tubulin beta-5 chain (Homo sapiens) (UniProt P07437); note: assay method not described here
[10] = biological target: Ubiquitin carboxyl-terminal hydrolase 10 (Homo sapiens) (UniProt Q14694); note: assay method not described here
[11] = biological target: E3 ubiquitin-protein ligase synoviolin (Homo sapiens) (UniProt Q86TM6); note: assay method not described here
[12] = biological target: 5'-AMP-activated protein kinase subunit gamma-2 (Homo sapiens) (UniProt Q9UGJ0); note: assay method not described here
[13] = biological target: Small ribosomal subunit protein uS7 (Homo sapiens) (UniProt P46782); note: assay method not described here
[14] = biological target: Mitochondrial import inner membrane translocase subunit TIM44 (Homo sapiens) (UniProt O43615); note: assay method not described here
[15] = biological target: Splicing factor, proline- and glutamine-rich (Homo sapiens) (UniProt P23246); note: assay method not described here
[16] = biological target: FACT complex subunit SPT16 (Homo sapiens) (UniProt Q9Y5B9); note: assay method not described here
[17] = biological target: Large ribosomal subunit protein uL2 (Homo sapiens) (UniProt P62917); note: assay method not described here
[18] = biological target: Glutathione S-transferase P (Homo sapiens) (UniProt P09211); note: assay method not described here
[19] = biological target: cAMP-dependent protein kinase catalytic subunit gamma (Homo sapiens) (UniProt P22612); note: assay method not described here
[20] = biological target: Sorting and assembly machinery component 50 homolog (Homo sapiens) (UniProt Q9Y512); note: assay method not described here
[21] = biological target: Peptidyl-prolyl cis-trans isomerase FKBP4 (Homo sapiens) (UniProt Q02790); note: assay method not described here
[22] = biological target: 26S proteasome non-ATPase regulatory subunit 7 (Homo sapiens) (UniProt P51665); note: assay method not described here
[23] = biological target: Serine/threonine-protein phosphatase 2A 55 kDa regulatory subunit B alpha isoform (Homo sapiens) (UniProt P63151); note: assay method not described here
[24] = biological target: Phosphatidylserine synthase 1 (Homo sapiens) (UniProt P48651); note: assay method not described here
[25] = biological target: Protein VAC14 homolog (Homo sapiens) (UniProt Q08AM6); note: assay method not described here
Vimentin (Homo sapiens) = Vimentin (Homo sapiens) (UniProt P08670)
[26] = biological target: NADH dehydrogenase [ubiquinone] iron-sulfur protein 2, mitochondrial (Homo sapiens) (UniProt O75306); note: assay method not described here
[27] = biological target: TBC1 domain family member 5 (Homo sapiens) (UniProt Q92609); note: assay method not described here
[28] = biological target: Profilin-1 (Homo sapiens) (UniProt P07737); note: assay method not described here
[29] = biological target: Proteasome subunit alpha type-4 (Homo sapiens) (UniProt P25789); note: assay method not described here
[30] = biological target: Non-receptor tyrosine-protein kinase TYK2 (Homo sapiens) (UniProt P29597); note: assay method not described here
[31] = biological target: Zinc finger CCCH-type antiviral protein 1 (Homo sapiens) (UniProt Q7Z2W4); note: assay method not described here
[32] = biological target: Mitogen-activated protein kinase 9 (Homo sapiens) (UniProt P45984); note: assay method not described here
[33] = biological target: RNA-binding protein RO60 (Homo sapiens) (UniProt P10155); note: assay method not described here
[34] = biological target: Ras association domain-containing protein 2 (Homo sapiens) (UniProt P50749); note: assay method not described here
[35] = biological target: Large ribosomal subunit protein uL18 (Homo sapiens) (UniProt P46777); note: assay method not described here
[36] = biological target: Rho-associated protein kinase 2 (Homo sapiens) (UniProt O75116); note: assay method not described here
[37] = biological target: Tubulin alpha-1C chain (Homo sapiens) (UniProt Q9BQE3); note: assay method not described here
[38] = biological target: Microtubule cross-linking factor 3 (Homo sapiens) (UniProt Q5TF21); note: assay method not described here
[39] = biological target: Transmembrane emp24 domain-containing protein 9 (Homo sapiens) (UniProt Q9BVK6); note: assay method not described here
[40] = biological target: U2 snRNP-associated SURP motif-containing protein (Homo sapiens) (UniProt O15042); note: assay method not described here
[41] = biological target: Dual specificity testis-specific protein kinase 2 (Homo sapiens) (UniProt Q96S53); note: assay method not described here
[42] = biological target: PCI domain-containing protein 2 (Homo sapiens) (UniProt Q5JVF3); note: assay method not described here
Throughout, for ED50: assay method not described here.

Chain of Tubulin alpha-1C chain (Homo sapiens) (Q9BQE3 whole entry, looked up): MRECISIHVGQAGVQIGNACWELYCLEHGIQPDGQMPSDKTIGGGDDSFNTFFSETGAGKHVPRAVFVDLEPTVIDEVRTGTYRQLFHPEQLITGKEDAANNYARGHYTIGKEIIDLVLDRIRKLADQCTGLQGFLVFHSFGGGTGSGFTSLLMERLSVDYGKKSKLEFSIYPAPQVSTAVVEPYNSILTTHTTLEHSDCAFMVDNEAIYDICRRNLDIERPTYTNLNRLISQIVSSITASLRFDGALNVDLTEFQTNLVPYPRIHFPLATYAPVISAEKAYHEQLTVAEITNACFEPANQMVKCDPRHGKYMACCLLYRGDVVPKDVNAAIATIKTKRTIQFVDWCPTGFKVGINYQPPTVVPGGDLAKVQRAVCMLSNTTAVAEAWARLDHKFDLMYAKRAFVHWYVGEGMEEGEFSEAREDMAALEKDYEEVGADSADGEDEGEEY
Chain of U5 small nuclear ribonucleoprotein 200 kDa helicase (Homo sapiens) (O75643 whole entry): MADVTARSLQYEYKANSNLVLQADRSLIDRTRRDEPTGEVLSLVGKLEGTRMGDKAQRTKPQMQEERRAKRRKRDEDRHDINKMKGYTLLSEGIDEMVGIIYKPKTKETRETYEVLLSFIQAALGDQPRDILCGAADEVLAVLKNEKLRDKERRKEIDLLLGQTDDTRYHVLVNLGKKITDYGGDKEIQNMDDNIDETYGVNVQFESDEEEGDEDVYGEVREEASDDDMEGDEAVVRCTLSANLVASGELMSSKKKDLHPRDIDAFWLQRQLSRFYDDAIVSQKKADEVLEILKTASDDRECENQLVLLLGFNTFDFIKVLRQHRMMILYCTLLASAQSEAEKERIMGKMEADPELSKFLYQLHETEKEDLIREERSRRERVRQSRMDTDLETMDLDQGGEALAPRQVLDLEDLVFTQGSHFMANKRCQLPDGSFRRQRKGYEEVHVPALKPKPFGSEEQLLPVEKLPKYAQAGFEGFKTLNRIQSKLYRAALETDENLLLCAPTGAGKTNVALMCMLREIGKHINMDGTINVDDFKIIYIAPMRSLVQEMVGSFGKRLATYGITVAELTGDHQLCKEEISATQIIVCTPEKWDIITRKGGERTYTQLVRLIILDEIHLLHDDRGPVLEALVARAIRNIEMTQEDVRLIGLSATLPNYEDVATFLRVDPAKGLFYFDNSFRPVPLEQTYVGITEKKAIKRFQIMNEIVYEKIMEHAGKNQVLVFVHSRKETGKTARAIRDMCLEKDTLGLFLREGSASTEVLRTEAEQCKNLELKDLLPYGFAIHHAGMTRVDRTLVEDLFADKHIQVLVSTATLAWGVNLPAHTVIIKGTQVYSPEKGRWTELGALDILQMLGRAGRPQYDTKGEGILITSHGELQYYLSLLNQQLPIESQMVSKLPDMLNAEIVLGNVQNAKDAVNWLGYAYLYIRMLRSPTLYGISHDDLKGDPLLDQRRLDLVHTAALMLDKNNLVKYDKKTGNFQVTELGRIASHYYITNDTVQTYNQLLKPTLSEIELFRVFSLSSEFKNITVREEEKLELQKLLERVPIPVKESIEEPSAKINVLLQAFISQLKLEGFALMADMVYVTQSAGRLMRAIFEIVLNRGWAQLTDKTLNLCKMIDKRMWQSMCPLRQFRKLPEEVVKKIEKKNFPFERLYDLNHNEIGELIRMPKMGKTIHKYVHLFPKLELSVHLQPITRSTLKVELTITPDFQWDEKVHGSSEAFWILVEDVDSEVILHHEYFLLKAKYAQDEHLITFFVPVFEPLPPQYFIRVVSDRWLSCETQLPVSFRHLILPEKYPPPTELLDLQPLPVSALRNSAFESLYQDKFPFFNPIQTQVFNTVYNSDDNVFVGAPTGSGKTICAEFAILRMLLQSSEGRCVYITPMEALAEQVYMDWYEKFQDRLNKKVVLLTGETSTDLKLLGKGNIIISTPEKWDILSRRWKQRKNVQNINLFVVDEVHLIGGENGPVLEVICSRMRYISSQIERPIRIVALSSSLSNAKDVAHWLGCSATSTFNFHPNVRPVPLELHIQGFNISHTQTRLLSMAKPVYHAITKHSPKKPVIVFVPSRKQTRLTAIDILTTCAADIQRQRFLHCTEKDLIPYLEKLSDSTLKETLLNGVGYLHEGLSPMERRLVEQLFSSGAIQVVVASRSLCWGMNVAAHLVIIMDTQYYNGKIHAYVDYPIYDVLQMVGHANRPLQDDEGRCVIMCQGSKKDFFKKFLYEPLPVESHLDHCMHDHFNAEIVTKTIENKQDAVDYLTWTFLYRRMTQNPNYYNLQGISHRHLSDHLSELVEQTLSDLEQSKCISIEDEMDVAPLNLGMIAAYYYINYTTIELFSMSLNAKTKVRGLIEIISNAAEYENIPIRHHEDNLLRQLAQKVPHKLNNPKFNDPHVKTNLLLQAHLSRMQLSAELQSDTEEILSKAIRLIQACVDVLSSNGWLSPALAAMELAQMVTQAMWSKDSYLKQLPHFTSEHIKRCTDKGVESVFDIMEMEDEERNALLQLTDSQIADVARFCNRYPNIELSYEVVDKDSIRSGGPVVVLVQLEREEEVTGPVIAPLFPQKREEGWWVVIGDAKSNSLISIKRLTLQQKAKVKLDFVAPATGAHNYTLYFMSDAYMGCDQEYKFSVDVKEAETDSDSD
Chain of Ubiquitin carboxyl-terminal hydrolase 10 (Homo sapiens) (Q14694 whole entry): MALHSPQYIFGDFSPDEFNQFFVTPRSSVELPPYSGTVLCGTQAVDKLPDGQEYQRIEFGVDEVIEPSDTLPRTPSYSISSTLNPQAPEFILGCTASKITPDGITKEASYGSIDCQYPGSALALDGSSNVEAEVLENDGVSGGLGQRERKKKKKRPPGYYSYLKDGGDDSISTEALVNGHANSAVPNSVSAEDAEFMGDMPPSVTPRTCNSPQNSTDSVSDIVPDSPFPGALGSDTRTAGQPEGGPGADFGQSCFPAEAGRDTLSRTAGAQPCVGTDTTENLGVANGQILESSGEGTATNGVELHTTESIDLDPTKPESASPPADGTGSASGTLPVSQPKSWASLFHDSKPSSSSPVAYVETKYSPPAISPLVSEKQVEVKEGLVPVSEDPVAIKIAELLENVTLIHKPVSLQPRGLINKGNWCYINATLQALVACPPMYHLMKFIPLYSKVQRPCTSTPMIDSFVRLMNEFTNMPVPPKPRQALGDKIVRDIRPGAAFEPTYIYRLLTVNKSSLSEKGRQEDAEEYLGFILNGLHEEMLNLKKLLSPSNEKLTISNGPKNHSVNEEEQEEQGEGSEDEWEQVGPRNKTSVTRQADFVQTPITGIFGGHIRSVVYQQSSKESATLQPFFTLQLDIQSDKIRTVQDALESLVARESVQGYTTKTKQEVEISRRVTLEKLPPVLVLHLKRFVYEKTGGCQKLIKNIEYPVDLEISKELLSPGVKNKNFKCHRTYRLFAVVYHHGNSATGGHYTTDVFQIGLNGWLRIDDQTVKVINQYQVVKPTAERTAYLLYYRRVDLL
Chain of Mitogen-activated protein kinase 9 (Homo sapiens) (P45984 whole entry, looked up): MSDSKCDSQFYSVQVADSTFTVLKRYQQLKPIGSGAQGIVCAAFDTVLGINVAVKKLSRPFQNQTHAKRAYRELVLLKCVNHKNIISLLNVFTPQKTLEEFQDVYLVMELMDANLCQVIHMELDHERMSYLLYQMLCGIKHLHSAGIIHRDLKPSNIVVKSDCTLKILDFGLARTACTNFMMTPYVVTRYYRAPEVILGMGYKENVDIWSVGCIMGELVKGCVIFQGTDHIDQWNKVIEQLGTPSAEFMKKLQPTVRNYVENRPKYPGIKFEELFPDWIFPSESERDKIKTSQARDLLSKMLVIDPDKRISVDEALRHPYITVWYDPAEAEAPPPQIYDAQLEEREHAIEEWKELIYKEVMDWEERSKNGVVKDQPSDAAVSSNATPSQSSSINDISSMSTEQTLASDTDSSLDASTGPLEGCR
Chain of FACT complex subunit SPT16 (Homo sapiens) (Q9Y5B9 whole entry, one chain of several): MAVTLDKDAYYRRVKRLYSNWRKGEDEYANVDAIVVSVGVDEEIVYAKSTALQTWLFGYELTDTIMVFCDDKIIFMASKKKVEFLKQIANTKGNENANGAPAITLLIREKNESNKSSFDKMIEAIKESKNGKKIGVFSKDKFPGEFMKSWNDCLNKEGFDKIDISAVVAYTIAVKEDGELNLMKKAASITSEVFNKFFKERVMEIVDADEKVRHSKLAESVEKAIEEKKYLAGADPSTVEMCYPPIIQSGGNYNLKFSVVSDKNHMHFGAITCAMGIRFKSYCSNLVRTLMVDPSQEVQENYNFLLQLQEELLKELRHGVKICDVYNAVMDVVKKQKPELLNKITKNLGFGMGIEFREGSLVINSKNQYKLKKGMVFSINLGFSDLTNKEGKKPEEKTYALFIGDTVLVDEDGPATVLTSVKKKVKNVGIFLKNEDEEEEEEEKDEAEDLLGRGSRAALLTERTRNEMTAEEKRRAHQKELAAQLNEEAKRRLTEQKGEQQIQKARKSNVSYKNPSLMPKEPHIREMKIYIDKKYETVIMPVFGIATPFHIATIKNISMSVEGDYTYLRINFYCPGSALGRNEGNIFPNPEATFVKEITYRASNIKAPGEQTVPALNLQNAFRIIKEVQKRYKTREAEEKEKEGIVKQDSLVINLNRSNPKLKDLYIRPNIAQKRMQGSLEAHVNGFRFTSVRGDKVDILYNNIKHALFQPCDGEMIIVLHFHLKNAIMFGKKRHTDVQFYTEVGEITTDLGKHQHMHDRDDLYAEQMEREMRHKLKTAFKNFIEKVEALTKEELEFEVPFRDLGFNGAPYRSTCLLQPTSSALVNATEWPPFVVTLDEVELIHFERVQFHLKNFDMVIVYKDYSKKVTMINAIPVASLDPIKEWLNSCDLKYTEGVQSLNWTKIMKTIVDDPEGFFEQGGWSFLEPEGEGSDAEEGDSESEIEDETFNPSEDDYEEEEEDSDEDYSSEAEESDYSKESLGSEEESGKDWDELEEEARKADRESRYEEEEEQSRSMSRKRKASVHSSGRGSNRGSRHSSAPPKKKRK
Chain of Transmembrane emp24 domain-containing protein 9 (Homo sapiens) (Q9BVK6 whole entry, the tested form may be a part): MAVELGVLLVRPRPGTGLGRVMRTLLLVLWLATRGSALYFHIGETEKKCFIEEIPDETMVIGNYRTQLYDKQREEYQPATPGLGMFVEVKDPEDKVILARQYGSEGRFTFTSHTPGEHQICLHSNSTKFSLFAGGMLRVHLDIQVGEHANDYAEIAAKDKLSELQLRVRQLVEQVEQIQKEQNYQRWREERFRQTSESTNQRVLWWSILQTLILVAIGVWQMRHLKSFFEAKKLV

## Cc1ccc(C(=O)Nc2cccc(C(F)(F)F)c2)cc1Nc1nc(-c2cccnc2)nc2c1cnn2C
[1]
  ED50: 0.0238 µM
[2]
  ED50: 0.571 µM
[3]
  ED50: 11.1 µM
Ephrin type-A receptor 4
  IC50: 0.0076 µM
[4]
  ED50: 1.94 µM
Homo sapiens
  ED50: 8.11 µM
[5]
  ED50: 6.15 µM
[6]
  ED50: 3.18 µM
[7]
  ED50: 1.74 µM
[8]
  ED50: 1.22 µM
[9]
  ED50: 2.46 µM
[10]
  ED50: 4.33 µM
[11]
  ED50: 0.162 µM
[12]
  ED50: 57.4 µM
[13]
  ED50: 0.176 µM
[14]
  ED50: 0.445 µM
[15]
  ED50: 6.39 µM
[16]
  ED50: 0.0046 µM
[17]
  ED50: 0.0503 µM
[18]
  ED50: 1700 µM
[19]
  ED50: 1.23 µM
[20]
  ED50: 0.784 µM
[21]
  ED50: 8.87 µM
[22]
  ED50: 4.12 µM
[23]
  ED50: 3.68 µM
[24]
  ED50: 6.64 µM
[25]
  ED50: 0.648 µM
Vimentin (Homo sapiens)
  ED50: 1.03 µM
[26]
  ED50: 0.0453 µM
[27]
  ED50: 24 µM
[28]
  ED50: 3.95 µM
[29]
  ED50: 0.151 µM
[30]
  ED50: 69.7 µM
[31]
  ED50: 13.3 µM
[32]
  ED50: 0.0588 µM
[33]
  ED50: 2.18 µM
[34]
  ED50: 0.0164 µM
[35]
  ED50: 0.862 µM
[36]
  ED50: 0.0201 µM
[37]
  ED50: 0.00564 µM
[38]
  ED50: 11.9 µM
[39]
  ED50: 67.9 µM
[40]
  ED50: 0.0194 µM
[41]
  ED50: 0.00136 µM
[42]
  ED50: 1.92 µM

## Cc1ccc(C(=O)Nc2cccc(C(F)(F)F)c2)cc1Nc1nc(-c2cccnc2)nc2nn(C)cc12
[1]
  ED50: 0.0778 µM
[2]
  ED50: 2.54 µM
[3]
  ED50: 19.9 µM
Ephrin type-A receptor 4
  IC50: ~10 µM
[4]
  ED50: 0.0279 µM
Homo sapiens
  ED50: 13.1 µM
[5]
  ED50: 0.539 µM
[6]
  ED50: 0.0777 µM
[7]
  ED50: 0.0538 µM
[8]
  ED50: 98.4 µM
[9]
  ED50: 0.00905 µM
[10]
  ED50: 0.0387 µM
[11]
  ED50: 0.00734 µM
[12]
  ED50: 0.0408 µM
[13]
  ED50: 0.0501 µM
[14]
  ED50: 0.31 µM
[15]
  ED50: 15 µM
[16]
  ED50: 0.149 µM
[17]
  ED50: 0.121 µM
[18]
  ED50: 58.7 µM
[19]
  ED50: 0.137 µM
[20]
  ED50: 0.00806 µM
[21]
  ED50: 0.546 µM
[22]
  ED50: 0.0711 µM
[23]
  ED50: 0.377 µM
[24]
  ED50: 0.0845 µM
[25]
  ED50: 3.84 µM
Vimentin (Homo sapiens)
  ED50: 1.62 µM
[26]
  ED50: 1.24 µM
[27]
  ED50: 0.0265 µM
[28]
  ED50: 3.98 µM
[29]
  ED50: 13 µM
[30]
  ED50: 1.13 µM
[31]
  ED50: 0.0483 µM
[32]
  ED50: 13.7 µM
[33]
  ED50: 0.0205 µM
[34]
  ED50: 3.43 µM
[35]
  ED50: 11.5 µM
[36]
  ED50: 0.432 µM
[37]
  ED50: 9.37 µM
[38]
  ED50: 0.00526 µM
[39]
  ED50: 0.00396 µM
[40]
  ED50: 1.91 µM
[41]
  ED50: 0.00616 µM
[42]
  ED50: 1450 µM
